Laboratory results taken from patent US8586611B2 (priority 2005, dated 2013).
Like-named read-outs stand apart in the source and are kept apart here.

Tests used:
Type in all cases: in vivo
[1] = tested on: Phytophthora infestans; experiment: whole plant or invertebrate; settings: for Test C disease rating (100 = 100% disease control, 0 = no disease control): tomato late blight
[2] = tested on: Phytophthora infestans; experiment: whole plant or invertebrate; settings: for Test D disease rating (100 = 100% disease control, 0 = no disease control): tomato late blight
[3] = tested on: Erysiphe graminis f. sp. tritici; experiment: Test E: wheat powdery mildew, spray the day before inoculation (disease rating, 100 = 100% disease control)
In short: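 Wheat seedlings sprayed to run-off with compound suspended in acetone/water 50/50 with 250 ppm Trem 014 (200 ppm equivalent to 500 g/ha); inoculated next day with Erysiphe graminis f. sp. tritici spore dust. Kept 7 days at 20° C, then rated 0–100% disease control versus controls.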

[4] = tested on: Plasmopara viticola; experiment: Test B: grape downy mildew, spray 24 h after inoculation (disease rating, 100 = 100% disease control)
In short: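 Grape seedlings were inoculated with Plasmopara viticola and held 24 h saturated at 20 °C, then sprayed to run-off with compound suspension (acetone/water with 250 ppm Trem 014; 200 ppm ≈ 500 g/ha). After 5 days at 20 °C and 24 h saturation, disease was rated from 0 to 100% control versus untreated.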

[5] = spray the day before inoculation, compounds without asterisk (not 40 or 10 ppm)
[6] = spray 17 h after inoculation, compounds without asterisk (not 40 or 10 ppm)
[7] = spray 24 h after inoculation, compounds without asterisk (not 40 or 10 ppm)
[8] = Phytophthora infestans, in Solanum lycopersicum, 144 h, read-out: Test C disease rating (100 = 100% disease control, 0 = no disease control)
[9] = Phytophthora infestans, in Solanum lycopersicum, topical, 96 h, read-out: Test D disease rating (100 = 100% disease control, 0 = no disease control)
[10] = sprayed the day before inoculation, unmarked compounds (no asterisk, not 40 or 10 ppm)
[11] = sprayed 17 h after inoculation, unmarked compounds (no asterisk, not 40 or 10 ppm)
[12] = sprayed the day before inoculation, 7 days at 20° C., unmarked compounds (no asterisk, not 40 or 10 ppm)
[13] = sprayed 24 h after inoculation, unmarked compounds (no asterisk, not 40 or 10 ppm)
[14] = spray the day before inoculation, tested at 40 ppm
[15] = spray 17 h after inoculation, tested at 40 ppm
[16] = spray 24 h after inoculation, tested at 40 ppm
[17] = spray the day before inoculation, tested at 10 ppm

Question: With `Cc1ccc(C)c(CC(=O)N2CCC(c3nc(C(=O)N(C)C4CCCCc5ccccc54)cs3)CC2)c1` (stereo not shown) [compound 129] as the compound, how does the “Test C disease rating (100 = 100% disease control, 0 = no disease control)” value [1, 5] read?
Answer: Its value is 50%.

Question: What about the “Test D disease rating (100 = 100% disease control, 0 = no disease control)” value [2, 6] of the same compound?
Answer: Its value is 57%.

Question: And the “Test E disease rating (100 = 100% disease control, 0 = no disease control)” value [3, 5]?
Answer: The value was 0%.

Question: And the “Test B disease rating (100 = 100% disease control, 0 = no disease control)” value [4, 7]?
Answer: The value was 0%.

Question: Which “Test C disease rating (100 = 100% disease control, 0 = no disease control)” value [1, 5] does the source give for `CCC(C)c1cc(C)n(CC(=O)N2CCC(c3nc(C(=O)N(C)[C@H](C)c4ccccc4)cs3)CC2)n1` (stereo partly shown) [compound 142] here?
Answer: Its value is 0%.

Question: And the “Test D disease rating (100 = 100% disease control, 0 = no disease control)” value [2, 6]?
Answer: Its value is 0%.

Question: What about the “Test E disease rating (100 = 100% disease control, 0 = no disease control)” value [3, 5] of the same compound?
Answer: The value was 87%.

Question: What about the “Test B disease rating (100 = 100% disease control, 0 = no disease control)” value [4, 7] of the same compound?
Answer: Its value is 0%.

Question: What does the source list for `CN(C(=O)c1csc(C2CCN(C(=O)Cn3nc(Cl)cc3Cl)CC2)n1)[C@@H]1CCCc2ccccc21` [Compound 238, 2-[1-[(3,5-dichloro-1H-pyrazol-1-yl)acetyl]-4-piperidinyl]-N-methyl-N-[(1R)-1,2,3,4-tetrahydro-1-naphthalenyl]-4-thiazolecarboxamide]?
Answer: pest or weed control at 10 ppm [1, 8]: 100%; pest or weed control at 10 ppm [2, 9]: 99%; pest or weed control at 10 ppm ([3]; Blumeria graminis, topical, 168 h, spray the day before inoculation, tested at 10 ppm, read-out: Test E disease rating (100 = 100% disease control, 0 = no disease control)): 0%; pest or weed control at 10 ppm ([4]; Plasmopara viticola, 144 h, spray 24 h after inoculation, tested at 10 ppm, read-out: Test B disease rating (100 = 100% disease control, 0 = no disease control)): 100%

Question: With `Cc1cc(C(F)(F)F)nn1CC(=O)N1CCC(c2nc(C(=O)N3CCCC(C)C3)cs2)CC1` (stereo not shown) [compound 312] as the compound, how does the “Test C disease rating (100 = 100% disease control, 0 = no disease control)” value [1, 10] read?
Answer: Its value is 100.

Question: And the “Test D disease rating (100 = 100% disease control, 0 = no disease control)” value [2, 11]?
Answer: The value was 80.

Question: What about the “Test E disease rating (100 = 100% disease control, 0 = no disease control)” value [3, 12] of the same compound?
Answer: Its value is 0.

Question: And the “Test B disease rating (100 = 100% disease control, 0 = no disease control)” value [4, 13]?
Answer: Its value is 91.

Question: What does the source list for `COc1ccc2c(c1)C(N(C)C(=O)c1csc(C3CCN(C(=O)Cn4nc(C(F)(F)F)cc4C)CC3)n1)CCC2` (stereo not shown) [compound 198]?
Answer: Test C disease rating (100 = 100% disease control, 0 = no disease control) [1, 14]: 100%; Test D disease rating (100 = 100% disease control, 0 = no disease control) [2, 15]: 99%; Test E disease rating (100 = 100% disease control, 0 = no disease control) [3, 14]: 0%; Test B disease rating (100 = 100% disease control, 0 = no disease control) [4, 16]: 99%

Question: For `CC[C@H](c1ccccc1)N(C)C(=O)c1csc(C2CCN(C(=O)Cn3nc(C)cc3C)CC2)n1` [compound 118], which “Test C disease rating (100 = 100% disease control, 0 = no disease control)” value [1, 5] is on record?
Answer: The value was 100%.

Question: What about the “Test D disease rating (100 = 100% disease control, 0 = no disease control)” value [2, 6] of the same compound?
Answer: The value was 99%.

Question: What about the “Test E disease rating (100 = 100% disease control, 0 = no disease control)” value [3, 5] of the same compound?
Answer: The value was 0%.

Question: And the “Test B disease rating (100 = 100% disease control, 0 = no disease control)” value [4, 7]?
Answer: The value was 99%.

Question: For `C[C@H](c1ccccc1)N(C)C(=O)c1csc(C2CCN(C(=O)Cc3cccc(F)c3F)CC2)n1` [compound 46], which “Test C disease rating (100 = 100% disease control, 0 = no disease control)” value [1, 14] is on record?
Answer: The value was 0%.

Question: What about the “Test D disease rating (100 = 100% disease control, 0 = no disease control)” value [2, 15] of the same compound?
Answer: The value was 0%.

Question: And the “Test E disease rating (100 = 100% disease control, 0 = no disease control)” value [3, 14]?
Answer: The value was 0%.

Question: And the “Test B disease rating (100 = 100% disease control, 0 = no disease control)” value [4, 16]?
Answer: The value was 0%.

Question: Which results are given for `Cc1cc(C(F)(F)F)nn1CC(=O)N1CCC(c2nc(C(=O)N3CCCC3c3ccc(Cl)cc3)cs2)CC1` (stereo not shown) [compound 290]?
Answer: Test C disease rating (100 = 100% disease control, 0 = no disease control) [1, 10]: 90; Test D disease rating (100 = 100% disease control, 0 = no disease control) [2, 11]: 26; Test E disease rating (100 = 100% disease control, 0 = no disease control) [3, 12]: 0; Test B disease rating (100 = 100% disease control, 0 = no disease control) [4, 13]: 0

Question: `CN(C(=O)c1csc(C2CCN(C(=O)Cn3nc(C(F)(F)F)cc3Cl)CC2)n1)[C@@H]1CCCc2ccccc21` [Compound 249, 2-[1-[[5-chloro-3-(trifluoromethyl)-1H-pyrazol-1-yl]acetyl]-4-piperidinyl]-N-methyl-N-[(1R)-1,2,3,4-tetrahydro-1-naphthalenyl]-4-thiazolecarboxamide] was tested. Which pest or weed control at 40 ppm [1, 8] did it give?
Answer: The pest or weed control at 40 ppm was 100%.

Question: And the pest or weed control at 40 ppm [2, 9]?
Answer: Its pest or weed control at 40 ppm is 99%.

Question: What about the pest or weed control at 40 ppm ([3]; Blumeria graminis, topical, 168 h, spray the day before inoculation, tested at 40 ppm, read-out: Test E disease rating (100 = 100% disease control, 0 = no disease control)) of the same compound?
Answer: The pest or weed control at 40 ppm was 0%.

Question: What about the pest or weed control at 40 ppm ([4]; Plasmopara viticola, 144 h, spray 24 h after inoculation, tested at 40 ppm, read-out: Test B disease rating (100 = 100% disease control, 0 = no disease control)) of the same compound?
Answer: Its pest or weed control at 40 ppm is 100%.

Question: With `Cc1cc(C(F)(F)F)nn1CC(=O)N1CCC(c2nc(C(=O)N(C)C3CCSc4ccccc43)cs2)CC1` (stereo not shown) [compound 180] as the compound, how does the “Test C disease rating (100 = 100% disease control, 0 = no disease control)” value [1, 17] read?
Answer: Its value is 100%.

Question: What about the “Test D disease rating (100 = 100% disease control, 0 = no disease control)” value ([2]; spray 17 h after inoculation, tested at 10 ppm) of the same compound?
Answer: Its value is 92%.

Question: And the “Test E disease rating (100 = 100% disease control, 0 = no disease control)” value [3, 17]?
Answer: Its value is 0%.

Question: And the “Test B disease rating (100 = 100% disease control, 0 = no disease control)” value ([4]; spray 24 h after inoculation, tested at 10 ppm)?
Answer: Its value is 47%.
